Assay results as given in patent US11149008B2, “Sulfamide derivatives and preparation method and use thereof” (HitGen Ltd., priority 2015, dated 2021).

Tests used:
[1] = biological target: HDAC 1 (Homo sapiens, UniProt Q13547); assay: Enzyme activity detection of histone deacetylase 1 (fluorogenic substrate deacetylation); assay type: biochemical; conditions: 0.28 ng/μL HDAC 1, 10 μM substrate; IC50 class
Description: During the deacetylation detection of a substrate, the HDAC inhibition activity of the compound of the present invention was detected.
C: Enzyme Activity Detection of Histone Deacetylase 1
Acetyl on the substrate was removed by the HDAC 1, so that the substrate was activated, and the developing liquid added subsequently could act on the substrate to release the fluorescent group. The size of the fluorescence signal reflected the activity of the HDAC 1. The IC50 detection method for this enzyme was disclosed in Chuping Xu, Elisabetta Soragni Improved Histone Deacetylase Inhibitors as Therapeutics for the Neurdegenerative Disease Friedreich's Ataxia: A New Synthetic Route. The total reaction system (100 μL/well) contained 0.28 ng/μL of HDAC 1, 10 μM of the substrate and the compound in different concentrations. The fluorescence signal was detected online at Ex/Em=360/460. The inhibition effect of the compound was determined from the obtained data, a concentration response curve was obtained by using the inhibition effect and the concentration of the compound, and the value of IC50 was fitted according to a four-parameter model.
The activities of the compounds prepared in the embodiments against the histone deacetylases 1, 3 and 6 (i.e., HDAC 1, HDAC 3 and HDAC 6) were detected by the above methods, and the test results were shown in Table 2, where the measurements of IC50 of the compounds were classified according to the following description: […]

[2] = test system: HCT-116 cells; assay: Cell growth inhibition measurement (CCK-8), HCT-116; assay type: cell-based; conditions: Homo sapiens, HCT-116, 72 h, highest EC50 measured during one or multiple operations, read-out: Inhibition activity against cancer cells, HCT-116 (EC50)
Description: A HepG2 cell strain and an HCT-116 cell strain were purchased from Shanghai Institutes for Biological Sciences; a DMEM high-sugar culture medium and an MEM culture medium were purchased from Hyclone; fetal calf serum was purchased from Gibco; trypsin was purchased from Invitrogen Shanghai; a CCK-8 kit was purchased from Beyotime Institute of Biotechnology; and, the remaining cell culture mediums and other consumables were purchased from Corning China.
HepG2 cells and HCT-116 cells in the logarithmic growth phase were digested by trypsin. After the counting of uniform cell suspension, the cell density was adjusted as 1500 cells/well by a culture medium containing 10% serum. The cells were re-inoculated to a 96-well cell culture plate, and cultured to a volume of 200 μL at 37° C. in an incubator containing 5% CO2. The cells could be tested after being cultured for 24 h.
The cells cultured for 24 h were taken out from the incubator. The culture liquid in the well plate was sucked out, and 200 μL of compound solution prepared in the culture medium containing 10% fetal calf serum was added in each well. Five parallel mediums were provided for each concentration, and a DMSO culture medium was used as negative control. The culture mediums were cultured for 72 h at 37° C. in an incubator containing 5% CO2, and CCK-8 detection was performed.
A serum-free culture medium and CCK-8 solution were prepared, and CCK-8 working solution was prepared at a ratio of 10:1 (this process should be performed in dark place).
The cells cultured for 72 h were taken out from the incubator. The culture liquid in the well plate was sucked out, and 120 μL of the CCK-8 working solution was added in each well. A well plate without cells was also added with 120 μL of the CCK-8 working solution to serve as blank control. The well plates were cultured for 1 h at 37° C. in an incubator containing 5% CO2 (this process should be performed in dark place).
The well plates were taken out from the incubator, 100 μL of solution in each well was sucked out and added in a new 96-well plate, and the absorbance was measured at 450 nm (this process should be performed in dark place).
where Tx is the absorbance of the CCK-8 after the compound acts for 72 h;
C is the absorbance of the CCK-8 after the negative control wells are cultured for 72 h; and
B is the absorbance of the CCK-8 in the blank control wells.
The test results of the compounds prepared according to the embodiments during the measurement are shown in Table 3, wherein the measured highest EC50 of the compounds during one operation or multiple operations is classified according to the following description: […]

HDAC 1, sequence (Q13547 whole entry, species assumed): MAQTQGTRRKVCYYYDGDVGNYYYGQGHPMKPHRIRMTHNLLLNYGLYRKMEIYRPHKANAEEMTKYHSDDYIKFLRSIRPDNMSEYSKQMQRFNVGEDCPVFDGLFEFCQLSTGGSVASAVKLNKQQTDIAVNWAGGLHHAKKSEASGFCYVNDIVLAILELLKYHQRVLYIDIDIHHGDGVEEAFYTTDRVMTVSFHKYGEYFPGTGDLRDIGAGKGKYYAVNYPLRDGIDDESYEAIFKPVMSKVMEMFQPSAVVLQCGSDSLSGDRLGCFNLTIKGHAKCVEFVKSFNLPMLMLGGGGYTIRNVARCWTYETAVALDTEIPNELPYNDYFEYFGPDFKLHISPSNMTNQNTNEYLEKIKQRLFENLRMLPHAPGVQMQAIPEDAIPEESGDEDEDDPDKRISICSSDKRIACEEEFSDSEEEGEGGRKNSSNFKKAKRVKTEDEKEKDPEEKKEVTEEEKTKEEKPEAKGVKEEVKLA

SMILES: CN1CCN(c2ccc(-c3ccc(S(=O)(=O)N4CC=C(C(=O)NO)CC4)cc3)cc2)CC1 [Compound 29, N-hydroxyl-1-((4′-(4-methylpiperazinyl)-[1,1′-biphenyl]-4-yl)sulfonyl)-1,2,3,6-tetrahydropyridine-4-formamide]
- IC50 [1]: < 100 nM
- EC50 [2]: < 100 nM
